Experimental data from ChEMBL document CHEMBL4184232, “Novel (S)-1,3,4,12a-tetrahydropyrazino[2,1-c][1,4]benzodiazepine-6,12(2H,11H)-dione derivatives: Selective inhibition of MV-4-11 biphenotypic B myelomonocytic leukemia cells' growth is accompanied by reactive oxygen species overproduction and apoptosis” (Bioorg Med Chem Lett, 2018).
Activity calls are given as the source filed them. The rule behind the calls is not given here.

Tests used:
MV4-11 [1] = assay: Antiproliferative activity against human MV4-11 cells incubated for 72 hrs by SRB assay; assay type: functional, cell-based; conditions: MV4-11, 72 h
UMUC3 [2] = assay: Antiproliferative activity against human UM-UC-3 cells incubated for 72 hrs by SRB assay; assay type: functional, cell-based; conditions: UMUC3, 72 h
LoVo = assay: Antiproliferative activity against human LoVo cells incubated for 72 hrs by SRB assay; assay type: functional, cell-based
UMUC3 [3] = assay: Induction of cell cycle arrest in human UM-UC-3 cells assessed as accumulation at G2/M phase at 5 to 100 uM incubated for 24 hrs by propidium iodide staining based flow cytometry; assay type: functional
UMUC3 [4] = assay: Induction of apoptosis in human UM-UC-3 cells assessed as increase in caspase-3/7 activity at 100 uM using Ac-DEVD-ACC substrate incubated for 24 hrs by fluorescence based assay; assay type: functional, cell-based
UMUC3 [5] = assay: Induction of oxidative stress in human UM-UC-3 cells assessed as increase in ROS production at 5 to 100 uM incubated for 6 hrs by DCF-DA and propidium iodide dye based flow cytometry; assay type: functional, cell-based
MV4-11 [6] = assay: Induction of oxidative stress in human MV4-11 cells assessed as increase in ROS production at 5 to 100 uM incubated for 6 hrs by DCF-DA and propidium iodide dye based flow cytometry; assay type: functional, cell-based
MV4-11 [7] = assay: Induction of cell cycle arrest in human MV4-11 cells assessed as reduction in accumulation at G2/M phase at 100 uM incubated for 24 hrs by propidium iodide staining based flow cytometry; assay type: functional
UMUC3 [8] = assay: Induction of cell cycle arrest in human UM-UC-3 cells assessed as accumulation at S phase at 5 to 100 uM incubated for 24 hrs by propidium iodide staining based flow cytometry; assay type: functional
A549 = assay: Antiproliferative activity against human A549 cells incubated for 72 hrs by SRB assay; assay type: functional, cell-based; conditions: A549, 72 h
MV4-11 [9] = assay: Induction of cell cycle arrest in human MV4-11 cells assessed as increase in accumulation at G0/G1 phase at 100 uM incubated for 24 hrs by propidium iodide staining based flow cytometry; assay type: functional
MV4-11 [10] = assay: Induction of cell cycle arrest in human MV4-11 cells assessed as increase in accumulation at subG1 phase at 100 uM incubated for 24 hrs by propidium iodide staining based flow cytometry; assay type: functional
HT-29 = assay: Antiproliferative activity against human HT-29 cells incubated for 72 hrs by SRB assay; assay type: functional, cell-based; conditions: HT-29, 72 h
UMUC3 [11] = assay: Induction of cell cycle arrest in human UM-UC-3 cells assessed as accumulation at G0/G1 phase at 5 to 100 uM incubated for 24 hrs by propidium iodide staining based flow cytometry; assay type: functional
A2780 = assay: Antiproliferative activity against human A2780 cells incubated for 72 hrs by SRB assay; assay type: functional, cell-based; conditions: A2780, 72 h
[12] = Ratio of induction of apoptosis in human UM-UC-3 cells assessed as increase in caspase-3/7 activity at 100 uM to induction of apoptosis in human MV4-11 cells assessed as increase in caspase-3/7 activity at 100 uM; assay type: functional
MV4-11 [13] = assay: Induction of apoptosis in human MV4-11 cells assessed as increase in caspase-3/7 activity using Ac-DEVD-ACC substrate incubated for 24 hrs by fluorescence based assay; assay type: functional, cell-based
MCF7 = assay: Antiproliferative activity against human MCF7 cells incubated for 72 hrs by SRB assay; assay type: functional, cell-based; conditions: MCF7, 72 h
MV4-11 [14] = assay: Induction of cell cycle arrest in human MV4-11 cells assessed as reduction in accumulation at S phase at 100 uM incubated for 24 hrs by propidium iodide staining based flow cytometry; assay type: functional
MDA-MB-231 = assay: Antiproliferative activity against human MDA-MB-231 cells incubated for 72 hrs by SRB assay; assay type: functional, cell-based; conditions: MDA-MB-231, 72 h
BALB/3T3 = assay: Antiproliferative activity against mouse BALB/3T3 cells incubated for 72 hrs by SRB assay; assay type: cell-based; conditions: BALB/3T3, 72 h
P388 = assay: Cytotoxicity against mouse P388 cells; assay type: functional
UMUC3 [15] = assay: Induction of apoptosis in human UM-UC-3 cells assessed as increase in caspase-3/7 activity at 5 to 100 uM using Ac-DEVD-ACC substrate incubated for 24 hrs by fluorescence based assay; assay type: functional, cell-based
UMUC3 [16] = assay: Induction of apoptosis in human UM-UC-3 cells at 5 to 100 uM incubated for 24 hrs by FITC-Annexin V staining based flow cytometry; assay type: functional, cell-based
MV4-11 [17] = assay: Induction of apoptosis in human MV4-11 cells at 5 to 100 uM incubated for 24 hrs by FITC-Annexin V staining based flow cytometry; assay type: functional, cell-based
Calf thymus DNA = assay: Binding affinity to calf thymus DNA assessed as increase in melting temperature incubated for 18 hrs by thermal denaturation study; assay type: nucleic-acid assay; conditions: Bos taurus

IC50 (MV4-11 [1]) [µM] | IC50 (LoVo) [µM] | IC50 (A549) [µM] | IC50 (HT-29) [µM] | IC50 (A2780) [µM] | IC50 (MCF7) [µM] | IC50 (MDA-MB-231) [µM] | SMILES | IC50 (UMUC3 [2]) [µM] | IC50 (BALB/3T3) [µM] | also measured
39.8 | – | – | – | – | – | – | O=C1Nc2ccccc2C(=O)N2CCN(C(=O)c3ccccc3I)C[C@H]12 | 13.3 | – | –
27.1 | – | – | – | – | – | – | O=C1Nc2ccccc2C(=O)N2CCN(C(=O)c3ccccc3)C[C@@H]12 | 10.5 | – | –
32.3 | – | – | – | – | – | – | O=C1Nc2ccccc2C(=O)N2CCN(C(=O)c3ccc(Cl)cc3)C[C@@H]12 | 18.2 | – | –
17.5 | 55 | 96.1 | 154 | 35.8 | 47.3 | 141 | O=C1Nc2ccccc2C(=O)N2CCN(C(=O)c3ccc(-c4ccccc4)cc3)C[C@@H]12 | 61.5 | 79.6 | Activity (UMUC3 [3]): inactive; Activity (UMUC3 [4]): Active; Activity (UMUC3 [5]): Active; Activity (MV4-11 [6]): Active; Activity (MV4-11 [7]): Active; Activity (UMUC3 [8]): inactive; Activity (MV4-11 [9]): Active; Activity (MV4-11 [10]): Active; Activity (UMUC3 [11]): inactive; Ratio [12]: >2; Activity (MV4-11 [13]): Dose-dependent effect; Activity (MV4-11 [14]): Active
28.8 | – | – | – | – | – | – | O=C1Nc2ccccc2C(=O)N2CCN(C(=O)c3ccccc3)C[C@H]12 | 24.6 | – | –
40.7 | 28.9 | 51 | 46.4 | 29.7 | 50.9 | 85.8 | O=C1Nc2ccc(Cl)cc2C(=O)N2CCN(C(=O)c3ccc(-c4ccccc4)cc3)C[C@@H]12 | 94.4 | 105 | –
– | – | – | – | – | – | – | O=C1Nc2ccccc2C(=O)N2C=C(c3ccc(Br)cc3)C[C@@H]12 | – | – | GI50 (P388): 0.51 µM
39.6 | – | – | – | – | – | – | O=C1Nc2ccccc2C(=O)N2CCN(C(=O)c3ccc(-c4ccccc4)cc3)C[C@H]12 | 19.6 | – | –
8.7 | 22.1 | 48.1 | 17.9 | 28.2 | 57 | 113 | O=C1Nc2ccc(Br)cc2C(=O)N2CCN(C(=O)c3ccc(-c4ccccc4)cc3)C[C@@H]12 | 119 | 121 | –
44.2 | 23.1 | 34.1 | 40.1 | 28 | 147 | 30.3 | O=C(CN1C(=O)[C@@H]2CN(C(=O)c3ccc(-c4ccccc4)cc3)CCN2C(=O)c2ccccc21)OCc1ccccc1 | 96.8 | 31 | –
36.7 | – | – | – | – | – | – | O=C1Nc2ccccc2C(=O)N2CCN(C(=O)c3ccc(Cl)cc3)C[C@H]12 | 22.3 | – | –
63.1 | 58.3 | 92 | 94.2 | 64.5 | 77.5 | 134 | CN1C(=O)[C@@H]2CN(C(=O)c3ccc(-c4ccccc4)cc3)CCN2C(=O)c2ccccc21 | 103 | 37 | –
7.6 | 27.6 | 3.2 | 17.8 | 19.6 | 7.6 | 7.8 | O=C(O)CN1C(=O)[C@@H]2CN(C(=O)c3ccc(-c4ccccc4)cc3)CCN2C(=O)c2ccccc21 | 3 | 15 | –
10.8 | 11 | 106 | 144 | 62.8 | 35.8 | 41 | O=C(c1ccc(-c2ccccc2)cc1)N1CCN2C(=O)c3ccccc3N(Cc3ccccc3)C(=O)[C@@H]2C1 | 136 | 136 | Activity (UMUC3 [3]): inactive; Activity (UMUC3 [15]): inactive; Activity (UMUC3 [5]): Dose-dependent effect; Activity (MV4-11 [6]): Dose-dependent effect; Activity (MV4-11 [7]): Active; Activity (UMUC3 [8]): inactive; Activity (MV4-11 [9]): Active; Activity (MV4-11 [10]): Active; Activity (UMUC3 [11]): inactive; Activity (UMUC3 [16]): inactive; Activity (MV4-11 [13]): Dose-dependent effect; Activity (MV4-11 [14]): Active; Activity (MV4-11 [17]): Active
– | – | – | – | – | – | – | COc1cc2c(cc1O)NC(=O)[C@@H]1C[C@@H](O)CN1C2=O | – | – | deltaTm (Calf thymus DNA): 3.3 K
44 | – | – | – | – | – | – | O=C1Nc2ccccc2C(=O)N2CCN(C(=O)c3ccccc3I)C[C@@H]12 | 31.1 | – | –
